Each block holds one molecule with its values, some of them ahead of it. Calls of active or inactive are those of the source.
Columns and labels:
[1] = reduction of Shn3 3'UTR-driven luciferase in osteoblasts – cell-based, Clone20 osteoblasts, firefly luciferase, cherry-picked, dose response (AID 624132); assay type: functional;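 also: firefly luciferase luminescence from reporter carrying the Shn3 3'UTR in osteoblasts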
[2] = loss of viability in HepG2 cells – cell-based, CellTiter-Glo, cherry-picked, cytotoxicity control for Shn3 inhibitor project, dose response (AID 624134); assay type: functional
[3] = non-specific 3'UTR reporter inhibition in Clone20-Shn3RL – cell-based, Renilla luciferase, cherry-picked, counter-screen for Shn3 inhibitor project, dose response (AID 624133); assay type: functional
[4] = Shn3 3'UTR reporter signal decrease – cell-based, Clone20 osteoblasts, firefly luciferase, cherry-pick, set 2, Schnurri-3 inhibitor project, dose response (AID 720490); assay type: functional;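 also: actives lower the luminescence signal as inhibitors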
[5] = molecular target: T1, RNA-binding protein pos-1 (Caenorhabditis elegans, UniProt G5EF15); test: disruptors of C. elegans POS-1 RNA interaction – biochemical, fluorescence polarization, dose response (AID 1964);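 also: purified POS-1 fused to maltose binding protein made in E. coli; potency of compounds blocking POS-1 binding to fluorescent RNA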
T1 sequence (G5EF15 whole entry): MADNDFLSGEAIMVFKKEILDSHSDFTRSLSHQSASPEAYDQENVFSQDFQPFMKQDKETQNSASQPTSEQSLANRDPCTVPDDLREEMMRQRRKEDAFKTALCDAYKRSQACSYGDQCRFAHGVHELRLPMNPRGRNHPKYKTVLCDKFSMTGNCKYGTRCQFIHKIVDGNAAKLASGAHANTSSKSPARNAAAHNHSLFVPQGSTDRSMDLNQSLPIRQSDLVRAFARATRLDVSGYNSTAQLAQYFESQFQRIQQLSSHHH

[6] = molecular target: T2, Zinc finger protein mex-5 (Caenorhabditis elegans, UniProt Q9XUB2); test: potency of MEX-5 RNA-binding blockers – biochemical, C. elegans, fluorescence polarization, dose response (AID 1960)
T2 sequence (Q9XUB2 whole entry): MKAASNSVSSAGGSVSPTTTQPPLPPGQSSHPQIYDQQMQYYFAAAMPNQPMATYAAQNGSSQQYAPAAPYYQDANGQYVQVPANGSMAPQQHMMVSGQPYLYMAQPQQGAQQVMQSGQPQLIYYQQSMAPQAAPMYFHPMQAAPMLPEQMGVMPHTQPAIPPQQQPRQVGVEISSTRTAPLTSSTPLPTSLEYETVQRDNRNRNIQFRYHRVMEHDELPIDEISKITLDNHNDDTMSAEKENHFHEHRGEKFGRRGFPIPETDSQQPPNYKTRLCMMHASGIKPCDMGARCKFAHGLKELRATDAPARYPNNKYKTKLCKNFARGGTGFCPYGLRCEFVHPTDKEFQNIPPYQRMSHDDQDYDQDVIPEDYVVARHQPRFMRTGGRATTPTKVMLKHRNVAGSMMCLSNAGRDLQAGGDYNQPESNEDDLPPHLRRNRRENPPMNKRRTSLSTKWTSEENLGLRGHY

[7] = molecular target: T3, Histone-lysine N-methyltransferase NSD2 (Homo sapiens, UniProt O96028); assay type: biochemical
T3 sequence (O96028 whole entry): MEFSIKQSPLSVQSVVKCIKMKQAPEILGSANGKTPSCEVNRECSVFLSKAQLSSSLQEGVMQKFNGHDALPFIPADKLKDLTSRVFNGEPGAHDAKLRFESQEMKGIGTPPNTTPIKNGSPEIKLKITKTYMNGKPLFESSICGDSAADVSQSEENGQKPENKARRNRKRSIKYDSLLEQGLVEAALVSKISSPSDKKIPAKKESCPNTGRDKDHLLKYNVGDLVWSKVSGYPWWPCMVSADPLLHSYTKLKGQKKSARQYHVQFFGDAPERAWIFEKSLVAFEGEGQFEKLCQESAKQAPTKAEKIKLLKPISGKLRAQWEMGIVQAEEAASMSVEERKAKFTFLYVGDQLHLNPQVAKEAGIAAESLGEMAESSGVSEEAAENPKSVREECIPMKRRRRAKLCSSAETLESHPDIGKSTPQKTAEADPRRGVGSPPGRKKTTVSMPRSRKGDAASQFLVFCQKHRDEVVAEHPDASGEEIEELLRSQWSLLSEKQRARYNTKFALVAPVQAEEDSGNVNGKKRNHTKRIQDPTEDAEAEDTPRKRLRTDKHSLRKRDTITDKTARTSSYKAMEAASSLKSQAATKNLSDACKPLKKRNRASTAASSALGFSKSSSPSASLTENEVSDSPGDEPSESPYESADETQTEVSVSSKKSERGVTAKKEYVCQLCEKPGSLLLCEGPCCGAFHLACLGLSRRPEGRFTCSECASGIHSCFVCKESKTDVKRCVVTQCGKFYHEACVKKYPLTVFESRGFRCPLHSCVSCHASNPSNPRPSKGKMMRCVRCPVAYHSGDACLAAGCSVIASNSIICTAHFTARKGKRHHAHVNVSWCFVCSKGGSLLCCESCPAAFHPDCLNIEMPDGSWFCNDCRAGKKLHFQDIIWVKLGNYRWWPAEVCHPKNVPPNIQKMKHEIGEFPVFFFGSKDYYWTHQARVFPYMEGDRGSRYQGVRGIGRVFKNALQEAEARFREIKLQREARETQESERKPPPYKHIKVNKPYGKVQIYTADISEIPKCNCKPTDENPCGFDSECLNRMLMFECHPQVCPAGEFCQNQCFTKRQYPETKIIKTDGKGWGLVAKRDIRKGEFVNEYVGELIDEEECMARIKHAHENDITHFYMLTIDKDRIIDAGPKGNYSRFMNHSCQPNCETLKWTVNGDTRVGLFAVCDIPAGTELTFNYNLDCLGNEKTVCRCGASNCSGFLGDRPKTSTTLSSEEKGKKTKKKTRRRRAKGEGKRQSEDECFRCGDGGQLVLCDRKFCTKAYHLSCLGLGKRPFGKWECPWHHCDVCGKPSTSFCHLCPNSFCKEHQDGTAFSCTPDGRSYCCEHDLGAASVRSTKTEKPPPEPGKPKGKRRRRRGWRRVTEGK

[8] = molecular target: Protein Tat (Human immunodeficiency virus type 1 group M subtype B (isolate HXB2)(HIV-1), UniProt P04608); assay type: functional;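 also: tat binding to TAR RNA read out by fluorescence polarization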
Chain of Protein Tat (P04608 whole entry): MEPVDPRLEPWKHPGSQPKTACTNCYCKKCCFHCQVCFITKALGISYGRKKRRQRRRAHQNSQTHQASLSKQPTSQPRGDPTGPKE

[9] = HPDE-C7 pancreatic duct cell viability loss – fluorescence, HTS (AID 430); assay type: functional, cell-based; details: Homo sapiens
[10] = molecular target: Large T antigen (Simian virus 40, UniProt P03070); assay type: functional, Betapolyomavirus macacae;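 also: Confirmatory-stage PubChem screen for compounds that inhibit SV40 T antigen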
Chain of Large T antigen (P03070 whole entry): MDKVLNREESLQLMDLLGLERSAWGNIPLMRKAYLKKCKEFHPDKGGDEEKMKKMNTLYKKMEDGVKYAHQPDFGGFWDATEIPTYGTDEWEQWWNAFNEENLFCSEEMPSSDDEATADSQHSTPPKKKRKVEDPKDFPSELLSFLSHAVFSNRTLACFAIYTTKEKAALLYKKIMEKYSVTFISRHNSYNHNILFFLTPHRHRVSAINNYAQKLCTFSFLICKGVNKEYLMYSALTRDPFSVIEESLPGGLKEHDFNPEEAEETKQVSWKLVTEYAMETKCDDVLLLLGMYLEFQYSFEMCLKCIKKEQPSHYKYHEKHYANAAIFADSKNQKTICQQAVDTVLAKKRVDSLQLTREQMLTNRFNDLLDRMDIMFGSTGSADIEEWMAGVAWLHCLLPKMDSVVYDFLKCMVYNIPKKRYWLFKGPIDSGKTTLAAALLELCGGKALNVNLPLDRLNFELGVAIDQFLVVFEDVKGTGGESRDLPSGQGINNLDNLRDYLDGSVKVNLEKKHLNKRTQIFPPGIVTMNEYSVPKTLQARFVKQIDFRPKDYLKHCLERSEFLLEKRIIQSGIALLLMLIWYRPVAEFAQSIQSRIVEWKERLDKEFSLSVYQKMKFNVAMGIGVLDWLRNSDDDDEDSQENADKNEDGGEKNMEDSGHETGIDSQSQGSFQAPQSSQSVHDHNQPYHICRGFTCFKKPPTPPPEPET

[11] = viability loss of HPDE-C7K cells – cell-based, fluorescence, HTS, primary screen (AID 431); assay type: functional; details: Homo sapiens
[12] = CellTiter-Glo luminescence survival assay, SW480 colon tumor line, concentration-response curve, half-maximal inhibitory concentration (AID 1117338); assay type: functional
[13] = RKO cell viability reduction, dose response, CellTiter-Glo luminescence (AID 1117322); assay type: functional
[14] = cytotoxicity toward HCT116 cells – cell-based, CellTiter-Glo luminescence, IC50, dose response (AID 1117332); assay type: functional; details: HCT-116
[15] = SNU-C1 cell viability reduction, dose response, CellTiter-Glo luminescence (AID 1117323); assay type: functional, cell-based
[16] = cytotoxicity toward Colo320 cells – cell-based, CellTiter-Glo luminescence, IC50, dose response (AID 1117334); assay type: functional; details: COLO 320
[17] = Reduced DLD-1 viability, concentration-response, CellTiter-Glo luminescence (AID 1117352); assay type: functional
[18] = HCT116 cell viability decrease, GSK3B pretreatment – CellTiter-Glo, IC50, dose response (AID 1117339); assay type: functional; details: HCT-116
[19] = growth inhibition of yeast DHODH-expressing 3D7 parasites – SYBR Green, dry powder samples, dose response (AID 1159570); assay type: functional, cell-based;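 also: parasite growth measured after 72 hours of compound exposure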
[20] = toxicity to human HepG2 hepatoma cells – cell-based, plate reader, dry powder samples, cytotoxicity control, dose response (AID 1159569); assay type: functional;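 also: inhibitor potency with signal falling toward the positive control level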
[21] = P. falciparum Dd2 growth inhibitors, dose response, SYBR Green, cherry-picked samples (AID 1159567); assay type: functional, cell-based
[22] = Dd2 malaria parasite growth inhibition potency – SYBR Green, dry powder samples, dose response (AID 1159566); assay type: functional, cell-based;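 also: potency for growth inhibition with lower SYBR green DNA signal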
[23] = growth inhibition of PfATP4-mutant resistant parasites – NITD609-resistant line, SYBR Green, dry powder, dose response (AID 1159571); assay type: functional, cell-based;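 also: parasites synchronized at ring stage by sorbitol before testing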
[24] = toxicity to human hepatoma HepG2 cells – cell-based, cherry-picked samples, cytotoxicity control, dose response (AID 1159577); assay type: functional
[25] = Potency on glucagon-like peptide 1 release, dose-response in NCI-H716 cell line, half maximal inhibitory concentration (AID 1117344); assay type: functional, cell-based
[26] = tested on: HEK293; test: viability loss in HEK293T cells – cell-based, ATP luminescence, cherry-pick samples, cytotoxicity control, dose response (AID 687005); assay type: functional; details: Homo sapiens;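 also: cells exposed to compound for 48 hours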
[27] = HEK293 Cytotoxicity Assay Measured in Cell-Based System Using Plate Reader - 7071-01_Inhibitor_Dose_CherryPick_Activity_Set2.; assay type: functional

SMILES: CCOC(=O)c1oc2ccc(S(=O)(=O)n3nc(-c4ccc(OC)cc4)cc3N)cc2c1C
AC50 [1]: 1.99 µM (active)
AC50 [2]: 60 µM (active)
AC50 [3]: 30 µM (active)
AC50 [4]: 4.68 µM (active)

EC50 [5]: > 300 µM (not active)
EC50 [6]: > 300 µM (not active)
AC50 [7]: 12.2 µM (active)
IC50 [8]: 4.84 µM (inconclusive)
SMILES: O=C(c1coc(=O)c(Br)c1)N1CCCc2ccccc21

SMILES: C=C(CC)C(=O)c1ccc(OCC(=O)O)c(Cl)c1Cl [ETHACRYNIC ACID]
EC50 [9]: 10.4 µM (active)
IC50 [10]: > 100 µM (active)
EC50 [11]: 11.3 µM (active)
IC50 [12]: > 6.67 µM (inactive)
IC50 [13]: > 6.67 µM (inactive)
IC50 [14]: > 20 µM (inactive)
IC50 [15]: > 20 µM (inactive)
IC50 [16]: > 20 µM (inactive)
IC50 [17]: 11.9 µM (inactive)
IC50 [18]: 12.2 µM (inactive)

SMILES: COc1cc(CN2C[C@@H]3N[C@H](C2)[C@H]3c2ccc(-c3ccncc3)cc2)cc(OC)c1
AC50 [19]: 1.33 µM (active)
AC50 [20]: 19.6 µM (active)
AC50 [21]: 1.63 µM (active)
AC50 [22]: 1.16 µM (active)
AC50 [23]: 0.886 µM (active)

SMILES: COc1cccc(-c2ccc([C@H]3[C@H](C#N)N(C(=O)Cc4ccncc4)[C@H]3CO)cc2)c1
AC50 [21]: 4.28 µM (active)
AC50 [24]: 33.8 µM (active)

SMILES: N#C[C@@H]1[C@H](c2ccc(C#CC3CCCCC3)cc2)[C@@H](CO)N1C(=O)Cc1ccccn1
AC50 [21]: 3.79 µM (active)
AC50 [24]: > 39 µM (inactive)

SMILES: Cc1ccc(C(=O)Nc2ccc(S(=O)(=O)O)c3cc(S(=O)(=O)O)cc(S(=O)(=O)O)c23)cc1NC(=O)c1cccc(NC(=O)Nc2cccc(C(=O)Nc3cc(C(=O)Nc4ccc(S(=O)(=O)O)c5cc(S(=O)(=O)O)cc(S(=O)(=O)O)c45)ccc3C)c2)c1 [SURAMIN]
IC50 [25]: > 40 µM (inactive)

SMILES: COc1ccc(CNC(=O)C(C)n2ccc3cc(S(=O)(=O)N4CCCCCC4)ccc32)cc1 (stereo not drawn)
AC50 [1]: 0.518 µM (active)
AC50 [2]: > 70 µM (inactive)
AC50 [4]: 17.4 µM (active)

SMILES: Cc1cccc(-c2ccc([C@@H]3[C@@H](CO)N4CCCCN(S(=O)(=O)c5ccccc5C)C[C@@H]34)cc2)c1
AC50 [26]: 19.3 µM (active)
AC50 [27]: 19.3 µM (active)
